Data on 19 compounds can be found in patent US20260137706A1, “METHODS OF TREATING INFLAMMATORY DISEASES” (INTERLINE THERAPEUTICS, INC., priority 2023, published 2026).

Some results are limits rather than exact numbers.

The target of experiment [1] is T1, GST-RIPK2 fusion protein (human RIPK2, amino acids 1-310) (Homo sapiens, UniProt O43353).
T1 construct: made in house; host or cells: baculovirus infected Sf9 cells
The experiment can be described thus: RIPK2 binding competition assay (TR-FRET, Tracer 199 displacement). To be noted: 10 nM Tracer 199, 1 nM GST-RIPK2, read-out: RIPK2 IC50. Summed up:
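GST-RIPK2 (human aa 1-310, Sf9-expressed; final 1 nM) with Tracer 199 (final 10 nM) and Tb-anti-GST (final 0.5 nM) in Tris pH 7.5 buffer, 45 min at 22 °C. TR-FRET 665/620 nm ratio after 337 nm excitation; normalized to no-inhibitor (0%) and no-protein (−100%), giving IC50.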
For orientation: Time-resolved FRET reads energy transfer from a long-lived donor to a nearby acceptor.

Experiment [2] deals with T2, binding of His-XIAP(BIR2)-avi fusion protein to GST-RIPK2 fusion protein (RIPK2/XIAP) (Homo sapiens, UniProt O43353).
T2 construct: made in house; host or cells: baculovirus infected Sf9 cells
T2 sequence (O43353 1-310 limits assumed): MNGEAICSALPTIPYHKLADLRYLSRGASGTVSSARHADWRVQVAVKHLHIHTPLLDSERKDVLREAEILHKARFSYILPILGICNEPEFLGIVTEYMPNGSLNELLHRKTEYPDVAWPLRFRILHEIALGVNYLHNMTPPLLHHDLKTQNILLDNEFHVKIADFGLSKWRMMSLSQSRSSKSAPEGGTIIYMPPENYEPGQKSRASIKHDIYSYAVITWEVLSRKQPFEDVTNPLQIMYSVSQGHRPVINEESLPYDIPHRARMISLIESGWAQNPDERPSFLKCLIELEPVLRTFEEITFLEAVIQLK
The experiment can be described thus: RIPK2-XIAP binding competition PPI assay (TR-FRET). To be noted: RIPK2/XIAP binding competition PPI assay; for Emax: Amax, read-out: PPI Amax bin; for IC50: read-out: PPI IC50 bin. An outline of the steps: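 Compounds (in DMSO, 100-fold stock) incubated 120 min at 23 °C with 1 nM GST-RIPK2 (aa 1-310) and 25 nM His-XIAP(BIR2 aa 152-231)-avi, plus anti-His-XL665 and anti-GST-Tb, in pH 7.5 Tris buffer. Read-out: 665/520 nm emission ratio. Normalized to no-inhibitor (0%) and 50 nM GSK583 (−100%); Amax binned A–D.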

Experiment [3] concerns NF-κB pathway (SEAP) in THP1-Dual cells. The experiment can be described thus: THP-1 Dual cell SEAP assay (L18-MDP stimulated). It is filed as cell-based. To be noted: Homo sapiens, THP1-Dual, read-out: NF-κB THP1 IC50 bin. An outline of the steps: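 THP1-Dual cells (~25,000/well) were preincubated 30 min with serially diluted compounds, then stimulated with 10 ng/mL L18-MDP (final) for 20-24 h at 37 °C. Supernatant SEAP was read with QUANTI-Blue at OD 620-655 nm after 2 h. IC50 came from non-linear fits of % inhibition versus DMSO/L18-MDP controls after media-blank subtraction.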

T1 sequence (O43353 1-310): as the sequence (O43353 1-310 limits assumed) above

The IC50 is the concentration at which inhibition is half-maximal. Regarding `CCCS(=O)(=O)Nc1cc(-c2cnc3cc(OC)c(S(=O)(=O)C(C)(C)C)cn23)cc(-n2cccn2)c1` [Example 81, N-(3-(6-(tert-butylsulfonyl)-7-methoxyimidazo[1,2-a]pyridin-3-yl)-5-(1H-pyrazol-1-yl)phenyl)propane-1-sulfonamide], the IC50 is 1 to 2.5 nM in experiment [1], greater than 20 nM in experiment [2] and 250 to 1000 nM in experiment [3]. For the same compound, the Emax in experiment [2] is less than 30%.
On the same counts, the results for `COc1cc2ncc(-c3cnc4c(c3)NCCO4)n2cc1S(=O)(=O)C(C)(C)C` [Example 82, 7-(6-(tert-butylsulfonyl)-7-methoxyimidazo[1,2-a]pyridin-3-yl)-2,3-dihydro-1H-pyrido[2,3-b][1,4]oxazine] are greater than 20 nM, greater than 20 nM, greater than 1000 nM and less than 30%.
The corresponding values for `COc1cc2ncc(-c3cnc4c(c3)CC(=O)N4)n2cc1S(=O)(=O)C(C)(C)C` [Example 83, 5-(6-(tert-butylsulfonyl)-7-methoxyimidazo[1,2-a]pyridin-3-yl)-1,3-dihydro-2H-pyrrolo[2,3-b]pyridin-2-one] are greater than 20 nM, greater than 20 nM, greater than 1000 nM and less than 30%.
The corresponding values for `COc1cc2ncc(-c3cnc4c(c3)OCCN4)n2cc1S(=O)(=O)C(C)(C)C` [Example 84, 7-(6-(tert-butylsulfonyl)-7-methoxyimidazo[1,2-a]pyridin-3-yl)-3,4-dihydro-2H-pyrido[3,2-b][1,4]oxazine] are greater than 20 nM, greater than 20 nM, greater than 1000 nM and 55 to 80%.
In the case of `COc1cc2ncc(-c3cnc4c(c3)CCCN4)n2cc1S(=O)(=O)C(C)(C)C` [Example 85, 6-(6-(tert-butylsulfonyl)-7-methoxyimidazo[1,2-a]pyridin-3-yl)-1,2,3,4-tetrahydro-1,8-naphthyridine], the values for the 50% inhibitory concentration (IC50) in experiment [1], in experiment [2] and in experiment [3] were greater than 20 nM, greater than 20 nM and greater than 1000 nM, respectively. For the same compound, the Emax in experiment [2] was in the range of 30 to 55%.
Take `COc1cc2ncc(-c3ccc4c(c3)OCC4O)n2cc1S(=O)(=O)C(C)(C)C` (stereo not shown) [Example 86, 6-(6-(tert-butylsulfonyl)-7-methoxyimidazo[1,2-a]pyridin-3-yl)-2,3-dihydrobenzofuran-3-ol]: the figures for the IC50 in experiment [1], in experiment [2] and in experiment [3] were greater than 20 nM, greater than 20 nM and greater than 1000 nM, respectively. Also, the Emax in experiment [2] was less than 30%.
Take `COc1cc2ncc(-c3cnc4c(c3)OCC4O)n2cc1S(=O)(=O)C(C)(C)C` (stereo not shown) [Example 87, 6-(6-(tert-butylsulfonyl)-7-methoxyimidazo[1,2-a]pyridin-3-yl)-2,3-dihydrofuro[3,2-b]pyridin-3-ol]: the IC50 in experiment [1] is greater than 20 nM; in experiment [2] it was greater than 20 nM; in experiment [3] it was greater than 1000 nM. Besides, in experiment [2], the Emax lay within 30 to 55%.
As for `COc1cc2ncc(-c3cnn(-c4ccccc4)c3F)n2cc1S(=O)(=O)C(C)(C)C` [Example 88, 6-(tert-butylsulfonyl)-3-(5-fluoro-1-phenyl-1H-pyrazol-4-yl)-7-methoxyimidazo[1,2-a]pyridine], the concentration for half-maximal inhibition (IC50) in experiment [1] is greater than 20 nM; in experiment [2], greater than 20 nM; in experiment [3] it was greater than 1000 nM. The Emax in experiment [2] was less than 30%.
Turning to `COc1cc2ncc(-c3ccc4nc(N)ccc4c3)n2cc1S(=O)(=O)C(C)(C)C` [Example 89, 6-(6-(tert-butylsulfonyl)-7-methoxyimidazo[1,2-a]pyridin-3-yl)quinolin-2-amine], the half-inhibitory concentration (IC50) in experiment [1] is 2.5 to 20 nM; in experiment [2], greater than 20 nM; in experiment [3], 250 to 1000 nM. In addition, the Emax in experiment [2] was less than 30%.
The corresponding values for `COc1cc2ncc(-c3ccc4c(N)nccc4c3)n2cc1S(=O)(=O)C(C)(C)C` [Example 90, 6-(6-(tert-butylsulfonyl)-7-methoxyimidazo[1,2-a]pyridin-3-yl)isoquinolin-1-amine] are 2.5 to 20 nM, greater than 20 nM, 250 to 1000 nM and less than 30%.
The corresponding values for `COc1cc2ncc(-c3cnc4nc(N)ccc4c3)n2cc1S(=O)(=O)C(C)(C)C` [Example 91, 6-(6-(tert-butylsulfonyl)-7-methoxyimidazo[1,2-a]pyridin-3-yl)-1,8-naphthyridin-2-amine] are greater than 20 nM, greater than 20 nM, greater than 1000 nM and 30 to 55%.
Take `COc1cc2ncc(-c3cnc4cc(N)ccc4c3)n2cc1S(=O)(=O)C(C)(C)C` [Example 92, 3-(6-(tert-butylsulfonyl)-7-methoxyimidazo[1,2-a]pyridin-3-yl)quinolin-7-amine]: the IC50 in experiment [1] was greater than 20 nM; in experiment [2], greater than 20 nM; in experiment [3], greater than 1000 nM. In addition, the Emax in experiment [2] was 30 to 55%.
With `COc1cc2ncc(-c3ccc4c(N)noc4c3)n2cc1S(=O)(=O)C(C)(C)C` [Example 93, 6-(6-(tert-butylsulfonyl)-7-methoxyimidazo[1,2-a]pyridin-3-yl)benzo[d]isoxazol-3-amine], the half-maximal inhibitory concentration (IC50) was 2.5 to 20 nM in experiment [1], greater than 20 nM in experiment [2] and 250 to 1000 nM in experiment [3]. Moreover, the Emax in experiment [2] was less than 30%.
The corresponding values for `COc1cc2ncc(-c3ccn4nccc4c3)n2cc1S(=O)(=O)C(C)(C)C` [Example 94, 6-(tert-butylsulfonyl)-7-methoxy-3-(pyrazolo[1,5-a]pyridin-5-yl)imidazo[1,2-a]pyridine] are 2.5 to 20 nM, greater than 20 nM, 250 to 1000 nM and less than 30%.
On the same counts, the results for `COc1cc2ncc(-c3ccc4nc(N)sc4c3)n2cc1S(=O)(=O)C(C)(C)C` [Example 95, 6-(6-(tert-butylsulfonyl)-7-methoxyimidazo[1,2-a]pyridin-3-yl)benzo[d]thiazol-2-amine] are 2.5 to 20 nM, greater than 20 nM, greater than 1000 nM and less than 30%.
On the same counts, the results for `COc1cc2ncc(-c3ccc4nc(N)oc4c3)n2cc1S(=O)(=O)C(C)(C)C` [Example 96, 6-(6-(tert-butylsulfonyl)-7-methoxyimidazo[1,2-a]pyridin-3-yl)benzo[d]oxazol-2-amine] are 2.5 to 20 nM, greater than 20 nM, 250 to 1000 nM and less than 30%.
Regarding `COc1cc2ncc(-c3cc(C)c4nn(C)cc4c3)n2cc1S(=O)(=O)C(C)(C)C` [Example 97, 5-(6-(tert-butylsulfonyl)-7-methoxyimidazo[1,2-a]pyridin-3-yl)-2,7-dimethyl-2H-indazole], the results for the IC50 in experiment [1], in experiment [2] and in experiment [3] were 2.5 to 20 nM, greater than 20 nM and greater than 1000 nM, respectively. For the same compound, the Emax in experiment [2] was less than 30%.
The corresponding values for `COc1cc2ncc(-c3ccc4nc(N)[nH]c4c3)n2cc1S(=O)(=O)C(C)(C)C` [Example 98, 6-(6-(tert-butylsulfonyl)-7-methoxyimidazo[1,2-a]pyridin-3-yl)-1H-benzo[d]imidazol-2-amine] are 2.5 to 20 nM, greater than 20 nM, greater than 1000 nM and less than 30%.
The corresponding values for `COc1cc2ncc(-c3cn(C)c4ncccc34)n2cc1S(=O)(=O)C(C)(C)C` [Example 99, 6-(tert-butylsulfonyl)-7-methoxy-3-(1-methyl-1H-pyrrolo[2,3-b]pyridin-3-yl)imidazo[1,2-a]pyridine] are 2.5 to 20 nM, greater than 20 nM, greater than 1000 nM and less than 30%.
